Data published in ChEMBL document CHEMBL1240371, “Randomized, double-blind study of the safety, tolerability, and efficacy of tafenoquine versus mefloquine for malaria prophylaxis in nonimmune subjects” (Antimicrob Agents Chemother, 2010).

Experiments:
Details in all cases: in vivo, po
[1] = organism: Homo sapiens; assay: Toxicity in […] assessed as incidence of diarrhea at 250 mg, perorally for 3 days and weekly 250 mg, perorally maintenance dose for 26 +/- 4 weeks; format: organism-based
[2] = organism: Homo sapiens; assay: Toxicity in […] assessed as incidence of abnormal coordination at 250 mg, perorally for 3 days and weekly 250 mg, perorally maintenance dose for 26 +/- 4 weeks; format: organism-based
[3] = organism: Homo sapiens; assay: Toxicity in […] assessed as incidence of nausea at 250 mg, perorally for 3 days and weekly 250 mg, perorally maintenance dose for 26 +/- 4 weeks; format: organism-based
[4] = organism: Homo sapiens; assay: Toxicity in […] assessed as incidence of back pain at 250 mg, perorally for 3 days and weekly 250 mg, perorally maintenance dose for 26 +/- 4 weeks; format: organism-based
[5] = organism: Homo sapiens; assay: Toxicity in […] assessed as incidence of gastroentertis at 250 mg, perorally for 3 days and weekly 250 mg, perorally maintenance dose for 26 +/- 4 weeks; format: organism-based
[6] = organism: Homo sapiens; assay: Toxicity in […] assessed as incidence of abdominal pain at 250 mg, perorally for 3 days and weekly 250 mg, perorally maintenance dose for 26 +/- 4 weeks; format: organism-based, Abdomen
[7] = organism: Homo sapiens; assay: Toxicity in […] assessed as incidence of musculoskeletal injury at 250 mg, perorally for 3 days and weekly 250 mg, perorally maintenance dose for 26 +/- 4 weeks; format: organism-based
[8] = organism: Homo sapiens; assay: Toxicity in […] assessed as incidence of headache at 250 mg, perorally for 3 days and weekly 250 mg, perorally maintenance dose for 26 +/- 4 weeks; format: organism-based
[9] = organism: Homo sapiens; assay: Toxicity in […] assessed as incidence of dizziness at 250 mg, perorally for 3 days and weekly 250 mg, perorally maintenance dose for 26 +/- 4 weeks; format: organism-based
[10] = organism: Homo sapiens; assay: Toxicity in […] assessed as incidence of vertigo at 250 mg, perorally for 3 days and weekly 250 mg, perorally maintenance dose for 26 +/- 4 weeks; format: organism-based
[11] = organism: Homo sapiens; assay: Toxicity in […] assessed as incidence of arthralgia at 250 mg, perorally for 3 days and weekly 250 mg, perorally maintenance dose for 26 +/- 4 weeks; format: organism-based
[12] = organism: Homo sapiens; assay: Toxicity in […] assessed as incidence of fungal dermatitis at 250 mg, perorally for 3 days and weekly 250 mg, perorally maintenance dose for 26 +/- 4 weeks; format: organism-based
[13] = organism: Homo sapiens; assay: Toxicity in […] assessed as incidence of pigmentation of retinal epithelium at 250 mg, perorally for 3 days and weekly 250 mg, perorally maintenance dose for 26 +/- 4 weeks; format: organism-based
[14] = organism: Homo sapiens; assay: Toxicity in […] assessed as incidence of increase in bilirubin at 250 mg, perorally for 3 days and weekly 250 mg, perorally maintenance dose for 26 +/- 4 weeks; format: organism-based
[15] = organism: Homo sapiens; assay: Toxicity in […] assessed as incidence of abnormal dreams at 250 mg, perorally for 3 days and weekly 250 mg, perorally maintenance dose for 26 +/- 4 weeks; format: organism-based
[16] = organism: Homo sapiens; assay: Toxicity in […] assessed as incidence of phayngitis at 250 mg, perorally for 3 days and weekly 250 mg, perorally maintenance dose for 26 +/- 4 weeks; format: organism-based
[17] = organism: Homo sapiens; assay: Toxicity in […] assessed as incidence of vomiting at 250 mg, perorally for 3 days and weekly 250 mg, perorally maintenance dose for 26 +/- 4 weeks; format: organism-based
[18] = organism: Homo sapiens; assay: Toxicity in […] assessed as incidence of somnolence at 250 mg, perorally for 3 days and weekly 250 mg, perorally maintenance dose for 26 +/- 4 weeks; format: organism-based
[19] = organism: Homo sapiens; assay: Toxicity in […] assessed as incidence of depression at 250 mg, perorally for 3 days and weekly 250 mg, perorally maintenance dose for 26 +/- 4 weeks; format: organism-based
[20] = organism: Homo sapiens; assay: Toxicity in […] assessed as incidence of rash at 250 mg, perorally for 3 days and weekly 250 mg, perorally maintenance dose for 26 +/- 4 weeks; format: organism-based
[21] = organism: Homo sapiens; assay: Toxicity in […] assessed as incidence of increase in serum creatinine at 250 mg, perorally for 3 days and weekly 250 mg, perorally maintenance dose for 26 +/- 4 weeks; format: organism-based
[22] = organism: Homo sapiens; assay: Toxicity in […] assessed as incidence of abnormal retinal fluorescein at 250 mg, perorally for 3 days and weekly 250 mg, perorally maintenance dose for 26 +/- 4 weeks; format: organism-based
[23] = organism: Homo sapiens; assay: Toxicity in […] assessed as incidence of viral infection at 250 mg, perorally for 3 days and weekly 250 mg, perorally maintenance dose for 26 +/- 4 weeks; format: organism-based
[24] = organism: Homo sapiens; assay: Toxicity in […] assessed as incidence of upper respiratory tract infection at 250 mg, perorally for 3 days and weekly 250 mg, perorally maintenance dose for 26 +/- 4 weeks; format: organism-based
[25] = organism: Homo sapiens; assay: Toxicity in […] assessed as incidence of insomnia at 250 mg, perorally for 3 days and weekly 250 mg, perorally maintenance dose for 26 +/- 4 weeks; format: organism-based
[26] = organism: Homo sapiens; assay: Toxicity in […] assessed as incidence of amnesia at 200 mg, perorally for 3 days and weekly 200 mg, perorally maintenance dose for 26 +/- 4 weeks; format: organism-based
[27] = organism: Homo sapiens; assay: Toxicity in […] assessed as incidence of somnolence at 200 mg, perorally for 3 days and weekly 200 mg, perorally maintenance dose for 26 +/- 4 weeks; format: organism-based
[28] = organism: Homo sapiens; assay: Toxicity in […] assessed as incidence of euphoria at 200 mg, perorally for 3 days and weekly 200 mg, perorally maintenance dose for 26 +/- 4 weeks; format: organism-based
[29] = organism: Homo sapiens; assay: Toxicity in […] assessed as incidence of decrease in hematocrit at 250 mg, perorally for 3 days and weekly 250 mg, perorally maintenance dose for 26 +/- 4 weeks relative to baseline; format: organism-based; parameters: scale not given: the % may be the effect or the level left
[30] = organism: Homo sapiens; assay: Toxicity in […] assessed as incidence of depression at 200 mg, perorally for 3 days and weekly 200 mg, perorally maintenance dose for 26 +/- 4 weeks; format: organism-based
[31] = organism: Homo sapiens; assay: Toxicity in […] assessed as incidence of decrease in hematocrit at 200 mg, perorally for 3 days and weekly 200 mg, perorally maintenance dose for 26 +/- 4 weeks; format: organism-based; parameters: scale not given: the % may be the effect or the level left
[32] = organism: Homo sapiens; assay: Toxicity in […] assessed as incidence of vortex keratopathy at 200 mg, perorally for 3 days and weekly 200 mg, perorally maintenance dose for 26 +/- 4 weeks; format: organism-based
[33] = organism: Homo sapiens; assay: Toxicity in […] assessed as incidence of vertigo at 200 mg, perorally for 3 days and weekly 200 mg, perorally maintenance dose for 26 +/- 4 weeks; format: organism-based
[34] = organism: Homo sapiens; assay: Toxicity in […] assessed as incidence of rash at 200 mg, perorally for 3 days and weekly 200 mg, perorally maintenance dose for 26 +/- 4 weeks; format: organism-based
[35] = organism: Homo sapiens; assay: Toxicity in […] assessed as incidence of increase in bilirubin at 200 mg, perorally for 3 days and weekly 200 mg, perorally maintenance dose for 26 +/- 4 weeks; format: organism-based
[36] = organism: Homo sapiens; assay: Toxicity in […] assessed as incidence of viral infection at 200 mg, perorally for 3 days and weekly 200 mg, perorally maintenance dose for 26 +/- 4 weeks; format: organism-based
[37] = organism: Homo sapiens; assay: Toxicity in […] assessed as incidence of diarrhea at 200 mg, perorally for 3 days and weekly 200 mg, perorally maintenance dose for 26 +/- 4 weeks; format: organism-based
[38] = organism: Homo sapiens; assay: Toxicity in […] assessed as incidence of increase in serum creatinine at 200 mg, perorally for 3 days and weekly 200 mg, perorally maintenance dose for 26 +/- 4 weeks; format: organism-based
[39] = organism: Homo sapiens; assay: Toxicity in […] assessed as incidence of agitation at 200 mg, perorally for 3 days and weekly 200 mg, perorally maintenance dose for 26 +/- 4 weeks; format: organism-based
[40] = organism: Homo sapiens; assay: Toxicity in […] assessed as incidence of fungal dermatitis at 200 mg, perorally for 3 days and weekly 200 mg, perorally maintenance dose for 26 +/- 4 weeks; format: organism-based
[41] = organism: Homo sapiens; assay: Toxicity in […] assessed as incidence of pigmentation of retinal epithelium at 200 mg, perorally for 3 days and weekly 200 mg, perorally maintenance dose for 26 +/- 4 weeks; format: organism-based
[42] = organism: Homo sapiens; assay: Toxicity in […] assessed as incidence of insomnia at 200 mg, perorally for 3 days and weekly 200 mg, perorally maintenance dose for 26 +/- 4 weeks; format: organism-based
[43] = organism: Homo sapiens; assay: Toxicity in […] assessed as incidence of tremor at 200 mg, perorally for 3 days and weekly 200 mg, perorally maintenance dose for 26 +/- 4 weeks; format: organism-based
[44] = organism: Homo sapiens; assay: Toxicity in […] assessed as incidence of arthralgia at 200 mg, perorally for 3 days and weekly 200 mg, perorally maintenance dose for 26 +/- 4 weeks; format: organism-based
[45] = organism: Homo sapiens; assay: Toxicity in […] assessed as incidence of abnormal coordination at 200 mg, perorally for 3 days and weekly 200 mg, perorally maintenance dose for 26 +/- 4 weeks; format: organism-based
[46] = organism: Homo sapiens; assay: Toxicity in […] assessed as incidence of anxiety at 200 mg, perorally for 3 days and weekly 200 mg, perorally maintenance dose for 26 +/- 4 weeks; format: organism-based
[47] = organism: Homo sapiens; assay: Toxicity in […] assessed as incidence of nausea at 200 mg, perorally for 3 days and weekly 200 mg, perorally maintenance dose for 26 +/- 4 weeks; format: organism-based
[48] = organism: Homo sapiens; assay: Toxicity in […] assessed as incidence of abnormal retinal fluorescein at 200 mg, perorally for 3 days and weekly 200 mg, perorally maintenance dose for 26 +/- 4 weeks; format: organism-based
[49] = organism: Homo sapiens; assay: Toxicity in […] assessed as incidence of headache at 200 mg, perorally for 3 days and weekly 200 mg, perorally maintenance dose for 26 +/- 4 weeks; format: organism-based
[50] = organism: Homo sapiens; assay: Toxicity in […] assessed as incidence of vomiting at 200 mg, perorally for 3 days and weekly 200 mg, perorally maintenance dose for 26 +/- 4 weeks; format: organism-based
[51] = organism: Homo sapiens; assay: Toxicity in […] assessed as incidence of phayngitis at 200 mg, perorally for 3 days and weekly 200 mg, perorally maintenance dose for 26 +/- 4 weeks; format: organism-based
[52] = organism: Homo sapiens; assay: Toxicity in […] assessed as incidence of abdominal pain at 200 mg, perorally for 3 days and weekly 200 mg, perorally maintenance dose for 26 +/- 4 weeks; format: organism-based, Abdomen
[53] = organism: Homo sapiens; assay: Toxicity in […] assessed as incidence of paroniria at 200 mg, perorally for 3 days and weekly 200 mg, perorally maintenance dose for 26 +/- 4 weeks; format: organism-based
[54] = organism: Homo sapiens; assay: Toxicity in […] assessed as incidence of abnormal dreams at 200 mg, perorally for 3 days and weekly 200 mg, perorally maintenance dose for 26 +/- 4 weeks; format: organism-based
[55] = organism: Homo sapiens; assay: Toxicity in […] assessed as incidence of dizziness at 200 mg, perorally for 3 days and weekly 200 mg, perorally maintenance dose for 26 +/- 4 weeks; format: organism-based
[56] = organism: Homo sapiens; assay: Toxicity in […] assessed as incidence of back pain at 200 mg, perorally for 3 days and weekly 200 mg, perorally maintenance dose for 26 +/- 4 weeks; format: organism-based

OC(c1cc(C(F)(F)F)nc2c(C(F)(F)F)cccc12)C1CCCCN1 (stereo unspecified) [MEFLOQUINE]
Activity [1]: 30%
Activity [2]: 1%
Activity [3]: 13%
Activity [4]: 26%
Activity [5]: 51%
Activity [6]: 13%
Activity [7]: 49%
Activity [8]: 20%
Activity [9]: 2%
Activity [10]: 8%
Activity [11]: 18%
Activity [12]: 8%
Activity [13]: 23.5%
Activity [14]: 0.6%
Activity [15]: 2%
Activity [16]: 3%
Activity [17]: 8%
Activity [18]: 6%
Activity [19]: 1%
Activity [20]: 21%
Activity [21]: 10%
Activity [22]: 100%
Activity [23]: 13%
Activity [24]: 32%
Activity [25]: 3%

COc1cc(C)c2c(Oc3cccc(C(F)(F)F)c3)c(OC)cc(NC(C)CCCN)c2n1 (stereo unspecified) [TAFENOQUINE]
Activity [26]: 1%
Activity [27]: 12%
Activity [28]: 2%
Activity [29]: 15%
Activity [30]: 1%
Activity [31]: 20%
Activity [32]: 93.2%
Activity [33]: 22%
Activity [34]: 70%
Activity [35]: 2.6%
Activity [36]: 39%
Activity [37]: 77%
Activity [38]: 19%
Activity [39]: 2%
Activity [40]: 44%
Activity [41]: 39.1%
Activity [42]: 5%
Activity [43]: 2%
Activity [44]: 55%
Activity [45]: 2%
Activity [46]: 2%
Activity [47]: 28%
Activity [48]: 28.6%
Activity [49]: 61%
Activity [50]: 21%
Activity [51]: 25%
Activity [52]: 24%
Activity [53]: 1%
Activity [54]: 7%
Activity [55]: 5%
Activity [56]: 74%
